Experiments:
[1] = tested on: mice; conditions: cited from earlier work; for induction of (cutaneous) vasodilation: agonist alone
[2] = tested on: Hb9::GFP human ES cell-derived motor neurons on SOD1G93A glia; assay: Survival of human ES cell-derived motor neurons co-cultured with SOD1G93A glia treated with prostaglandin D2 receptor antagonists; type: cell-based; conditions: for Hb9::GFP cells remaining (cell death / survival of motor neurons) on SOD1G93A glia: 10 days of treatment
[3] = tested on: Hb9::GFP human ES cell-derived motor neurons; assay: Survival of Hb9::GFP human ES cell-derived motor neurons co-cultured with non-transgenic (WT) glia treated with candidate factors; type: cell-based; conditions: 20 days of treatment
Method: After 24 hours, the cells had aggregated to form embryoid bodies (EBs), and the media was changed to remove debris by centrifuging the EBs and resuspending in fresh in human ES cell media without bFGF2 or plasmanate in low attachment 6-well plates. EBs were cultured as such for 13 more days, with half of the media changed every two days, and a complete media change every week. After 14 days, the EBs were induced toward a caudal and ventral identity using retinoic acid (1 μM, Sigma) and an agonist of the Shh signaling pathway (1 μM) in N2 media: 1:1 DMEM:F-12+Glutamate (Gibco), 10,000 units Penicillin and 1 mg/mL Streptomicin (Gibco), 1% N2 Supplement (Gibco), 0.2 mM ascorbic acid (Sigma-Aldrich), 0.16% D-(+)-Glucose (Sigma-Aldrich), BDNF (10 ng/ml, R&D Systems), for another 14 days. The EBs were then matured for a final 14 days in N2 media with GNDF (10 ng/mL, R&D Systems). After 42 days of differentiation, the EBs were dissociated. To dissociate the EBs, they were centrifuged at 1000 rpm for 5 min in a 15 ml falcon tube, and then washed once with PBS to eliminate residual media. The EBs were then incubated for 60 minutes at 37° C. in Earle's Balanced Salt Solution with 20 units of papain and 1000 units of Deoxyribonuclease I (Worthington Biochemical Corporation). EBs were triturated using a 2 mL serological pipette every 15-20 minutes during this incubation. When an almost single cell suspension was achieved, the cells were centrifuged for 5 minutes at 1000 RPM. […] These cells were then counted and plated on Poly-D-Lysine/Laminin CultureSlides (BD biosciences) or on a layer of primary glial cells. Depending on the experiment, motor neurons or interneurons were counted 10 or 20 days after plating.
Non-transgenic glia were individually pretreated for 1 day with either one of the three cytokines MCP2, Cxcl7, or Rantes; with GMFb; an agonist of SHH pathway; or with PGD2. […] Replicate cultures were individually maintained for 20 days in the presence of each of the 6 factors, fixed, and the numbers of GFP positive motor neurons quantified. […]

## O=C(O)CCCCCCC1C(=O)NC(=O)N1CCC(O)C1CCCCC1 (stereo not shown) [BW245C]
[1]
  induction of (cutaneous) vasodilation: induced vasodilation

## O=C(O)CCCCCCC1C(=O)N(Cc2ccccc2)C(=O)N1NCC(O)C1CCCCC1 (stereo not shown) [BWA868C]
[2]
  Hb9::GFP cells remaining (cell death / survival of motor neurons) on SOD1G93A glia: significantly reduced cell death
[2]; listed as BW868C
  Hb9::GFP cells remaining (cell death / survival of motor neurons) on SOD1G93A glia: significantly reduced neuronal cell death

## CCCCCC(=O)CCC1C(=O)CC(O)C1C/C=C\CCCC(=O)O (stereo not shown) [DK-PGD2, 13,14-dihydro-15-keto-PGD2]
[1]
  induction of (cutaneous) vasodilation: did not induce cutaneous vasodilation

## CS(=O)(=O)c1cc(F)cc2c3c(n(Cc4ccc(Cl)cc4)c12)[C@@H](CC(=O)O)CC3 [MK 0524]
[2]
  increase in the number of GFP positive neurons relative to untreated neurons plated on the same glia: 32%
  neuronal cell death for motor neurons cultured on SOD1G93A glia: significantly reduced neuronal cell death
[1]; PGD2 or nicotinic acid (NA) challenge
  blockade of PGD2- and NA-induced vasodilation: blocked both PGD2- and NA-induced vasodilation

## CCCCC[C@H](O)/C=C/[C@H]1C(=O)C[C@H](O)[C@@H]1C/C=C\CCCC(=O)O [PGD2, prostaglandin D2]
[3]; WT glia pretreated 1 day, 10 μM
  number of motor neurons compared to the control condition: 19%+/−2%

B1: Mcp2: cytokine over expressed in mutant glia (protein, UniProt Q9Z121 24-97, looked up)
C-C motif chemokine 8: GPDKAPVTCCFHVLKLKIPLRVLKSYERINNIQCPMEAVVFQTKQGMSLCVDPTQKWVSEYMEILDQKSQILQP
[3]; non-transgenic (WT) glia pretreated 1 day, 100 ng/ml
  number of GFP positive motor neurons compared to the control condition: 103%+/−8%

B2: GMFb: glial maturation factor beta, induces a pro-inflammatory state in astrocytes (protein, UniProt Q9CQI3 2-142, looked up)
Glia maturation factor beta: SESLVVCDVAEDLVEKLRKFRFRKETHNAAIIMKIDKDERLVVLDEELEGVSPDELKDELPERQPRFIVYSYKYQHDDGRVSYPLCFIFSSPVGCKPEQQMMYAGSKNKLVQTAELTKVFEIRNTEDLTEEWLREKLGFFH
[3]; non-transgenic (WT) glia pretreated 1 day, 250 ng/ml
  number of human ES cell derived motor neurons compared to the control condition: 95%+/−9%

Source: patent publication US9180114B2, “Neurodegenerative diseases and methods of modeling” (PRESIDENT AND FELLOWS OF HARVARD COLLEGE, priority 2008, dated 2015)
